Experimental data: patent US8193351B2, “HSP90 inhibitor” (Chugai Seiyaku Kabushiki Kaisha, priority 2006, dated 2012)

Legend:
Human HSP90 alpha = biological target: T1, Human HSP90 alpha (Homo sapiens, UniProt P07900); assay: Measurement of HSP90 enzyme inhibitory activity (ATPase, malachite green); format: biochemical; conditions: purified human HSP90 alpha, 1 mM ATP added, 37° C., two hours; read-out: Enzyme inhibitory activity (IC50, μM) Human HSP 90α
T1 construct: made in house; host or cells: E. coli BL21 codon plus (Stratagene)
Description: HSP90 enzyme inhibitory activity of the compounds of the present invention represented by formula (1) was measured by the following method. Among the 6-phenyl-N-phenyl-(1,3,5)triazin/(1,3)pyrimidin-2,4-diamine derivatives which are known LPAAT-β inhibitors, the following two compounds were used as comparative compounds, and their HSP90 enzyme inhibitory activities were measured similarly by the following method.
Introduction of pETHuHSP90a into E. coli (BL21 codon plus; Stratagene) was followed by O/N incubation in the presence of 0.1 mM IPTG, and the collected E. coli cells were disrupted by ultrasonication in a Lysis buffer (50 mM Tris-HCl (pH8.0), 10 mM MgCl2, 0.1% Triton X-100, Protease inhibitor cocktail tablets (Roche Diagnostics)). The cell lysate solution was centrifuged (10,000 rpm×30 minutes), and the supernatant obtained after centrifugation was used as a crude extract. The crude extract was fractionated using HisPrep FF column and HiTrap Q column (Amersham) to prepare a purified enzyme solution.
An enzyme solution for assays was prepared by dilution of the purified enzyme solution using an assay buffer (50 mM Tris HCl pH7.6, 20 mM KCl, 5 mM MgCl2).
10 μL each of various concentrations of the test substances (10% DMSO solution) was added to each well, and for the positive control wells, 10 μL of 10% DMSO was added. 10 μL of 10% DMSO was also added to the negative control well.
10 μL of 1 mM ATP was added to all of the wells, and the reaction was carried out at 37° C. for two hours.

HCT116 cells = assay: Measurement of cell growth inhibition (Cell Counting Kit-8, four days); format: cell-based; conditions: Homo sapiens, HCT-116, 96 h; HCT116 colon cancer cell line, four days culture; read-out: Cell growth inhibitory activity (IC50, μM) HCT116
Description: Cell growth inhibitory activities of the compounds of the present invention represented by formula (1) were measured by the following method.
Cells were maintained under conditions recommended by the provider of each cell line. Cells suspended in a medium were added to solutions containing various concentrations of the test substance, and the cells were cultured at 37° C. in a 5% CO2 incubator. Four days later, Cell Counting Kit-8 was added, and absorbance measurements were taken following the protocol included in the kit.

| Compound | IC50 (Human HSP90 alpha) [µM] | IC50 (HCT116 cells) [µM] |
| --- | --- | --- |
| CSc1nc(N)nc(-c2ccccc2)n1 [4-methylsulfanyl-6-phenyl-[1,3,5]triazin-2-ylamine, reference compound] | 33.8 | – |
| Nc1nc(SCc2ccccc2)nc(-c2cc(OCc3ccccc3)c(Cl)cc2Cl)n1 [Example 4, 4-(5-benzyloxy-2,4-dichlorophenyl)-6-benzylsulfanyl[1,3,5]triazin-2-ylamine] | 1.2 | 8.5 |
| COc1cc(C(=O)N2CCN(C)CC2)ccc1Sc1nc(N)nc(-c2cc(OCC#N)c(Cl)cc2Cl)n1 [Example 15, (5-{4-amino-6-[2-methoxy-4-(4-methyl-piperazin-1-carbonyl)-phenylsulfanyl]-[1,3,5]triazin-2-yl}-2,4-dichlorophenoxy)-acetonitrile] | 2 | 0.35 |
| CSc1nc(N)nc(-c2cc(-c3ncccn3)c(Cl)cc2Cl)n1 [Example 24, 4-(2,4-dichloro-5-pyrimidin-2-yl-phenyl)-6-methylsulfanyl-[1,3,5]triazin-2-ylamine] | 2.1 | 1 |
| CC(=O)NCCSc1nc(N)nc(-c2cc(-c3ncccn3)c(Cl)cc2Cl)n1 [Example 25, N-{2-[4-amino-6-(2,4-dichloro-5-pyrimidin-2-yl-phenyl)-[1,3,5]triazin-2-ylsulfanyl]-ethyl}-acetamide] | 2.6 | 0.66 |
| NC(=O)c1cc(-c2nc(N)nc(SCc3ccccc3)n2)c(Cl)cc1Cl [Example 26, 5-(4-amino-6-benzylsulfanyl-[1,3,5]triazin-2-yl)-2,4-dichlorobenzamide] | 2.8 | 1.3 |
| Nc1nc(SCc2ccccc2)nc(-c2cc(C(=O)NC(CO)CO)c(Cl)cc2Cl)n1 [Example 28, 5-(4-amino-6-benzylsulfanyl-[1,3,5]triazin-2-yl)-2,4-dichloro-N-(2-hydroxy-1-hydroxymethylethyl)-benzamide] | 1.2 | 1.2 |
| COC(=O)c1cc(-c2nc(N)nc(SCC(O)CO)n2)c(C)cc1C (centres unmarked) [Example 37, 5-[4-amino-6-(2,3-dihydroxypropylsulfanyl)-[1,3,5]triazin-2-yl]-2,4-dimethylbenzoic acid methyl ester] | 1.4 | 6.6 |
| COc1ccc(OC)c(Sc2cc(-c3ccc(Cl)cc3Cl)nc(N)n2)c1 [Example 39, 4-(2,4-dichlorophenyl)-6-(2,5-dimethoxyphenylsulfanyl)-pyrimidin-2-ylamine] | 1.8 | 8.5 |
| COc1ccc(OC)c(Sc2cc(-c3ccc(OCCCO)cc3C)nc(N)n2)c1 [Example 44, 3-{4-[2-amino-6-(2,5-dimethoxyphenylsulfanyl)-pyrimidin-4-yl]-3-methylphenoxy}-propan-1-ol] | 2.2 | 14.5 |
| COc1ccc(OC)c(Sc2cc(-c3ccc(OCC#N)cc3C)nc(N)n2)c1 [Example 45, {4-[2-amino-6-(2,5-dimethoxyphenylsulfanyl)-pyrimidin-4-yl]-3-methylphenoxy}-acetonitrile] | 1.4 | 4.1 |
| COc1ccc(OC)c(Sc2cc(-c3ccc(OCC(N)=O)cc3C)nc(N)n2)c1 [Example 46, 2-{4-[2-amino-6-(2,5-dimethoxyphenylsulfanyl)-pyrimidin-4-yl]-3-methylphenoxy}-acetamide] | 1.5 | 8.1 |
| COc1ccc(OC)c(Sc2cc(-c3cc(OCc4ccccc4)c(Cl)cc3Cl)nc(N)n2)c1 [Example 48, 4-(5-benzyloxy-2,4-dichlorophenyl)-6-(2,5-dimethoxyphenylsulfanyl)-pyrimidin-2-ylamine] | 2.5 | 42.9 |
| COc1ccc(OC)c(Sc2cc(-c3cc(OCC#N)c(Cl)cc3Cl)nc(N)n2)c1 [Example 52, {5-[2-amino-6-(2,5-dimethoxyphenylsulfanyl)-pyrimidin-4-yl]-2,4-dichlorophenyoxy}-acetonitrile] | 1.7 | 1.4 |
| N#CCOc1cc(-c2cc(Sc3nc4ccccc4[nH]3)nc(N)n2)c(Cl)cc1Cl [Example 54, {5-[2-amino-6-(1H-benzimidazol-2-ylsulfanyl)-pyrimidin-4-yl]-2,4-dichlorophenoxy}-acetonitrile] | 1.5 | 1.1 |
| CCOC(=O)c1cnc(Sc2cc(-c3cc(OCC#N)c(Cl)cc3Cl)nc(N)n2)[nH]1 [Example 55, 2-[2-amino-6-(2,4-dichloro-5-cyanomethoxyphenyl)-pyrimidin-4-ylsulfanyl]-3H-imidazol-4-carboxylic acid ethyl ester] | 1.7 | 5.3 |
| CC(=O)NCCSc1nc(N)nc(-c2cc(OCC#N)c(Cl)cc2Cl)n1 [Example 59, N-{2-[4-amino-6-(2,4-dichloro-5-cyanomethoxy-phenyl)-[1,3,5]triazin-2-ylsulfanyl]-ethyl}-acetamide] | 1 | 0.12 |
| N#CCOc1cc(-c2nc(N)nc(SCCC(=O)N3CCOCC3)n2)c(Cl)cc1Cl [Example 63, {5-[4-amino-6-(3-morpholin-4-yl-3-oxo-propylsulfanyl)-[1,3,5]triazin-2-yl]-2,4-dichlorophenoxy}-acetonitrile] | 2 | 0.74 |
| COc1ccc(Oc2nc(N)nc(-c3c(Cl)cc4c5c(cccc35)COC4)n2)cc1OC [Example 82, 4-(5-chloro-1H,3H-benzo[de]isochromen-6-yl)-6-(3,4-dimethoxyphenoxy)-[1,3,5]triazin-2-ylamine] | 1.4 | 6.1 |
| Nc1nc(SC2CCCCC2)nc(-c2c(Cl)cc3c4c(cccc24)COC3)n1 [Example 92, 4-(5-chloro-1H,3H-benzo[de]isochromen-6-yl)-6-cyclohexylsulfanyl-[1,3,5]triazin-2-ylamine] | 1.1 | 9.2 |
| COC(=O)CSc1nc(N)nc(-c2c(Cl)cc3c4c(cccc24)COC3)n1 [Example 111, [4-amino-6-(5-chloro-1H,3H-benzo[de]isochromen-6-yl)-[1,3,5]triazin-2-ylsulfanyl]-acetic acid methyl ester] | 1.1 | 0.2 |
| CC(=O)Nc1ccccc1CSc1nc(N)nc(-c2c(Cl)cc3c4c(cccc24)COC3)n1 [Example 143, N-{2-[4-Amino-6-(5-chloro-1H,3H-benzo[de]isochromen-6-yl)-[1,3,5]triazin-2-ylsulfanylmethyl]-phenyl}-acetamide] | 1 | 0.28 |
| COc1ccc(OC)c(Sc2nc(N)nc(-c3c(Cl)cc4c5c(cccc35)COC4)n2)c1 [Example 145, 4-(5-Chloro-1H,3H-benzo[de]isochromen-6-yl)-6-(2,5-dimethoxyphenylsulfanyl)-[1,3,5]triazin-2-ylamine] | 1.9 | 0.24 |
| CC(=O)NCCCSc1nc(N)nc(-c2c(Cl)cc3c4c(cccc24)COC3)n1 [Example 149, N-{3-[4-amino-6-(5-chloro-1H,3H-benzo[de]isochromen-6-yl)-[1,3,5]triazin-2-ylsulfanyl]-propyl}-acetamide] | 2.8 | 0.11 |
| NC(=O)CSc1cc(-c2c(Cl)cc3c4c(cccc24)COC3)nc(N)n1 [Example 314, 2-[2-amino-6-(5-chloro-1H,3H-benzo[de]isochromen-6-yl)-pyrimidin-4-ylsulfanyl]-acetamide] | 1.3 | 1.1 |
| N#CCNC(=O)CSc1cc(-c2c(Cl)cc3c4c(cccc24)COC3)nc(N)n1 [Example 315, 2-[2-amino-6-(5-chloro-1H,3H-benzo[de]isochromen-6-yl)-pyrimidin-4-ylsulfanyl]-N-cyanomethyl-acetamide] | 1.9 | 2.1 |
| NC(=O)CCSc1cc(-c2c(Cl)cc3c4c(cccc24)COC3)nc(N)n1 [Example 316, 3-[2-amino-6-(5-chloro-1H,3H-benzo[de]isochromen-6-yl)-pyrimidin-4-ylsulfanyl]-propionamide] | 2.1 | 0.45 |
| Nc1nc(SCCC(=O)NCCO)cc(-c2c(Cl)cc3c4c(cccc24)COC3)n1 [Example 317, 3-[2-amino-6-(5-chloro-1H,3H-benzo[de]isochromen-6-yl)-pyrimidin-4-ylsulfanyl]-N-(2-hydroxy-ethyl)-propionamide] | 1.3 | 0.41 |
| CNC(=O)CCSc1cc(-c2c(Cl)cc3c4c(cccc24)COC3)nc(N)n1 [Example 318, 3-[2-amino-6-(5-chloro-1H,3H-benzo[de]isochromen-6-yl)-pyrimidin-4-ylsulfanyl]-N-methyl-propionamide] | 1.4 | 0.22 |
| COCCNC(=O)CCSc1cc(-c2c(Cl)cc3c4c(cccc24)COC3)nc(N)n1 [Example 319, 3-[2-amino-6-(5-chloro-1H,3H-benzo[de]isochromen-6-yl)-pyrimidin-4-ylsulfanyl]-N-(2-methoxy-ethyl)-propionamide] | 2.1 | 0.62 |
